Test results reported in patent publication US4508663A, “Process for preparing thiosulfenamide derivatives of N-phosphonomethylglycinonitriles” (Monsanto Company, priority 1983, dated 1985).

How the values were obtained:
Test in all cases: post-emergence herbicidal activity, greenhouse
Assay type in all cases: in vivo
[1] = test system: Barnyardgrass
From the text: (§1) A good grade of top soil is placed in aluminum pans having holes in the bottom and compacted to a depth of 0.95 to 1.27 cm. from the top of the pan. A predetermined number of seeds of each of several dicotyledonous and monocotyledonous annual plant species and/or vegetative propagules for the perennial plant species are placed on the soil and pressed into the soil surface. The seeds and/or vegetative propagules are covered with soil and leveled. The pans are then placed on a sand bench in the greenhouse and watered from below as needed. After the plants reach the desired age (two to three weeks), each pan except for the control pans is removed individually to a spraying chamber and sprayed by means of an atomizer operating at a positive air pressure of approximately 1.46 kg/cm^2 absolute. The atomizer contains 6 ml. of a solution or suspension of the chemical. In that 6 ml., is an amount of a cyclohexanone emulsifying agent mixture to give a spray solution or suspension which contains about 0.4% by weight of the emulsifier. The spray solution or suspension contains a sufficient amount of the candidate chemical in order to give application rates corresponding to those set forth in the tables. The spray solution is prepared by taking an aliquot of a 1.0% by weight stock solution or suspension of the candidate chemical in an organic solvent such as acetone or tetrahydrofuran or in water. The emulsifying agent employed is a mixture comprising 35 weight percent butylamine dodecylbenzene sulfonate and 65 weight percent of a tall oil ethylene oxide condensate having about 11 moles of ethylene oxide per mole of tall oil. The pans are returned to the greenhouse and watered as before and the injury to the plants as compared to the control is observed at approximately two and four weeks as indicated in the tables under WAT and the results recorded. In some instances, the two-week observations are omitted.
(§2) The post-emergence herbicidal activity index used in Table I is as follows: […]

[2] = test system: Cocklebur
From the text: as §1, §2

[3] = test system: Crabgrass; settings: Table II
From the text: as §1, §2

[4] = test system: Downy Brome
From the text: as §1, §2

[5] = test system: Hemp Sesbania; settings: Table II
From the text: as §1, §2

[6] = test system: Johnsongrass; settings: Table I
From the text: as §1, §2

[7] = test system: Lambsquarters
From the text: as §1, §2

[8] = test system: Morningglory
From the text: as §1, §2

[9] = test system: Panicum Spp; settings: Table II
From the text: as §1, §2

[10] = test system: Quackgrass; settings: Table I
From the text: as §1, §2

[11] = test system: Rice; settings: Table II
From the text: as §1, §2

[12] = test system: Smartweed
From the text: as §1, §2

[13] = test system: Sorghum; settings: Table II
From the text: as §1, §2

[14] = test system: Soybean; settings: Table II
From the text: as §1, §2

[15] = test system: Sugar Beet; settings: Table II
From the text: as §1, §2

[16] = test system: Velvetleaf
From the text: as §1, §2

[17] = test system: Wheat; settings: Table II
From the text: as §1, §2

[18] = test system: Wild Buckwheat; settings: Table II
From the text: as §1, §2

[19] = test system: Yellow Nutsedge; settings: Table I
From the text: as §1, §2

N#CCN(CP(=O)(Oc1ccccc1)Oc1ccccc1)SSCCc1ccccc1 [XII, Phosphonic acid, [[(cyanomethyl)[(2-phenylethyl)dithio]amino]methyl]-, diphenyl ester]
post-emergence herbicidal activity index ([1]; Table I, 4 WAT, 5.6 kg/h): 2 (50-74% control)
post-emergence herbicidal activity index ([1]; Table I, 4 WAT, 11.2 kg/h): 2 (50-74% control)
post-emergence herbicidal activity index ([1]; Table II, 2 WAT, 0.28 kg/h): 0 (0-24% control)
post-emergence herbicidal activity index ([1]; Table II, 4 WAT, 1.12 kg/h): 0 (0-24% control)
post-emergence herbicidal activity index ([1]; Table II, 4 WAT, 5.6 kg/h): 2 (50-74% control)
post-emergence herbicidal activity index ([2]; Table I, 4 WAT, 5.6 kg/h): 2 (50-74% control)
post-emergence herbicidal activity index ([2]; Table I, 4 WAT, 11.2 kg/h): 4 (100% control)
post-emergence herbicidal activity index ([2]; Table II, 2 WAT, 0.28 kg/h): 0 (0-24% control)
post-emergence herbicidal activity index ([2]; Table II, 4 WAT, 1.12 kg/h): 0 (0-24% control)
post-emergence herbicidal activity index ([2]; Table II, 4 WAT, 5.6 kg/h): 2 (50-74% control)
post-emergence herbicidal activity index ([3]; 2 WAT, 0.28 kg/h): 0 (0-24% control)
post-emergence herbicidal activity index ([3]; 4 WAT, 1.12 kg/h): 0 (0-24% control)
post-emergence herbicidal activity index ([3]; 4 WAT, 5.6 kg/h): 3 (75-99% control)
post-emergence herbicidal activity index ([4]; Table I, 4 WAT, 5.6 kg/h): 0 (0-24% control)
post-emergence herbicidal activity index ([4]; Table I, 4 WAT, 11.2 kg/h): 3 (75-99% control)
post-emergence herbicidal activity index ([4]; Table II, 2 WAT, 0.28 kg/h): 0 (0-24% control)
post-emergence herbicidal activity index ([4]; Table II, 4 WAT, 1.12 kg/h): 0 (0-24% control)
post-emergence herbicidal activity index ([4]; Table II, 4 WAT, 5.6 kg/h): 2 (50-74% control)
post-emergence herbicidal activity index ([5]; 2 WAT, 0.28 kg/h): 0 (0-24% control)
post-emergence herbicidal activity index ([5]; 4 WAT, 1.12 kg/h): 0 (0-24% control)
post-emergence herbicidal activity index ([5]; 4 WAT, 5.6 kg/h): 1 (25-49% control)
post-emergence herbicidal activity index ([6]; 4 WAT, 5.6 kg/h): 1 (25-49% control)
post-emergence herbicidal activity index ([6]; 4 WAT, 11.2 kg/h): 4 (100% control)
post-emergence herbicidal activity index ([7]; Table I, 4 WAT, 5.6 kg/h): 4 (100% control)
post-emergence herbicidal activity index ([7]; Table I, 4 WAT, 11.2 kg/h): 4 (100% control)
post-emergence herbicidal activity index ([7]; Table II, 2 WAT, 0.28 kg/h): 0 (0-24% control)
post-emergence herbicidal activity index ([7]; Table II, 4 WAT, 1.12 kg/h): 0 (0-24% control)
post-emergence herbicidal activity index ([7]; Table II, 4 WAT, 5.6 kg/h): 3 (75-99% control)
post-emergence herbicidal activity index ([8]; Table I, 4 WAT, 5.6 kg/h): 1 (25-49% control)
post-emergence herbicidal activity index ([8]; Table I, 4 WAT, 11.2 kg/h): 1 (25-49% control)
post-emergence herbicidal activity index ([8]; Table II, 2 WAT, 0.28 kg/h): 0 (0-24% control)
post-emergence herbicidal activity index ([8]; Table II, 4 WAT, 1.12 kg/h): 0 (0-24% control)
post-emergence herbicidal activity index ([8]; Table II, 4 WAT, 5.6 kg/h): 1 (25-49% control)
post-emergence herbicidal activity index ([9]; 2 WAT, 0.28 kg/h): 0 (0-24% control)
post-emergence herbicidal activity index ([9]; 4 WAT, 1.12 kg/h): 0 (0-24% control)
post-emergence herbicidal activity index ([9]; 4 WAT, 5.6 kg/h): 1 (25-49% control)
post-emergence herbicidal activity index ([10]; 4 WAT, 5.6 kg/h): 0 (0-24% control)
post-emergence herbicidal activity index ([10]; 4 WAT, 11.2 kg/h): 3 (75-99% control)
post-emergence herbicidal activity index ([11]; 2 WAT, 0.28 kg/h): 0 (0-24% control)
post-emergence herbicidal activity index ([11]; 4 WAT, 1.12 kg/h): 0 (0-24% control)
post-emergence herbicidal activity index ([11]; 4 WAT, 5.6 kg/h): 0 (0-24% control)
post-emergence herbicidal activity index ([12]; Table I, 4 WAT, 5.6 kg/h): 0 (0-24% control)
post-emergence herbicidal activity index ([12]; Table I, 4 WAT, 11.2 kg/h): 3 (75-99% control)
post-emergence herbicidal activity index ([12]; Table II, 2 WAT, 0.28 kg/h): 0 (0-24% control)
post-emergence herbicidal activity index ([12]; Table II, 4 WAT, 1.12 kg/h): 0 (0-24% control)
post-emergence herbicidal activity index ([12]; Table II, 4 WAT, 5.6 kg/h): 2 (50-74% control)
post-emergence herbicidal activity index ([13]; 2 WAT, 0.28 kg/h): 0 (0-24% control)
post-emergence herbicidal activity index ([13]; 4 WAT, 1.12 kg/h): 1 (25-49% control)
post-emergence herbicidal activity index ([13]; 4 WAT, 5.6 kg/h): 3 (75-99% control)
post-emergence herbicidal activity index ([14]; 2 WAT, 0.28 kg/h): 0 (0-24% control)
post-emergence herbicidal activity index ([14]; 4 WAT, 1.12 kg/h): 0 (0-24% control)
post-emergence herbicidal activity index ([14]; 4 WAT, 5.6 kg/h): 1 (25-49% control)
post-emergence herbicidal activity index ([15]; 2 WAT, 0.28 kg/h): 0 (0-24% control)
post-emergence herbicidal activity index ([15]; 4 WAT, 1.12 kg/h): 0 (0-24% control)
post-emergence herbicidal activity index ([15]; 4 WAT, 5.6 kg/h): 1 (25-49% control)
post-emergence herbicidal activity index ([16]; Table I, 4 WAT, 5.6 kg/h): 0 (0-24% control)
post-emergence herbicidal activity index ([16]; Table I, 4 WAT, 11.2 kg/h): 2 (50-74% control)
post-emergence herbicidal activity index ([16]; Table II, 2 WAT, 0.28 kg/h): 0 (0-24% control)
post-emergence herbicidal activity index ([16]; Table II, 4 WAT, 1.12 kg/h): 0 (0-24% control)
post-emergence herbicidal activity index ([16]; Table II, 4 WAT, 5.6 kg/h): 2 (50-74% control)
post-emergence herbicidal activity index ([17]; 2 WAT, 0.28 kg/h): 0 (0-24% control)
post-emergence herbicidal activity index ([17]; 4 WAT, 1.12 kg/h): 0 (0-24% control)
post-emergence herbicidal activity index ([17]; 4 WAT, 5.6 kg/h): 1 (25-49% control)
post-emergence herbicidal activity index ([18]; 2 WAT, 0.28 kg/h): 0 (0-24% control)
post-emergence herbicidal activity index ([18]; 4 WAT, 1.12 kg/h): 0 (0-24% control)
post-emergence herbicidal activity index ([18]; 4 WAT, 5.6 kg/h): 2 (50-74% control)
post-emergence herbicidal activity index ([19]; 4 WAT, 5.6 kg/h): 2 (50-74% control)
post-emergence herbicidal activity index ([19]; 4 WAT, 11.2 kg/h): 2 (50-74% control)

N#CCN(CP(=O)(Oc1ccccc1)Oc1ccccc1)SSCc1cccc(C(F)(F)F)c1 [VIII, Phosphonic acid, [[(cyanomethyl)[[[3-(trifluoromethyl)phenyl]methyl]dithio]amino]methyl]-, diphenyl ester]
post-emergence herbicidal activity index ([1]; Table I, 4 WAT, 5.6 kg/h): 2 (50-74% control)
post-emergence herbicidal activity index ([1]; Table I, 4 WAT, 11.2 kg/h): 2 (50-74% control)
post-emergence herbicidal activity index ([2]; Table I, 4 WAT, 5.6 kg/h): 1 (25-49% control)
post-emergence herbicidal activity index ([2]; Table I, 4 WAT, 11.2 kg/h): 2 (50-74% control)
post-emergence herbicidal activity index ([4]; Table I, 4 WAT, 5.6 kg/h): 1 (25-49% control)
post-emergence herbicidal activity index ([4]; Table I, 4 WAT, 11.2 kg/h): 2 (50-74% control)
post-emergence herbicidal activity index ([6]; 4 WAT, 5.6 kg/h): 3 (75-99% control)
post-emergence herbicidal activity index ([6]; 4 WAT, 11.2 kg/h): 3 (75-99% control)
post-emergence herbicidal activity index ([7]; Table I, 4 WAT, 5.6 kg/h): 4 (100% control)
post-emergence herbicidal activity index ([7]; Table I, 4 WAT, 11.2 kg/h): 4 (100% control)
post-emergence herbicidal activity index ([8]; Table I, 4 WAT, 5.6 kg/h): 1 (25-49% control)
post-emergence herbicidal activity index ([8]; Table I, 4 WAT, 11.2 kg/h): 1 (25-49% control)
post-emergence herbicidal activity index ([10]; 4 WAT, 11.2 kg/h): 0 (0-24% control)
post-emergence herbicidal activity index ([12]; Table I, 4 WAT, 5.6 kg/h): 0 (0-24% control)
post-emergence herbicidal activity index ([12]; Table I, 4 WAT, 11.2 kg/h): 0 (0-24% control)
post-emergence herbicidal activity index ([16]; Table I, 4 WAT, 5.6 kg/h): 1 (25-49% control)
post-emergence herbicidal activity index ([16]; Table I, 4 WAT, 11.2 kg/h): 1 (25-49% control)
post-emergence herbicidal activity index ([19]; 4 WAT, 5.6 kg/h): 2 (50-74% control)
post-emergence herbicidal activity index ([19]; 4 WAT, 11.2 kg/h): 2 (50-74% control)

N#CCN(CP(=O)(Oc1ccccc1)Oc1ccccc1)SSC1CCCCC1 [X, Phosphonic acid, [[(cyanomethyl)(cyclohexyldithio)amino]methyl]-, diphenyl ester]
post-emergence herbicidal activity index ([1]; Table I, 2 WAT, 5.6 kg/h): 0 (0-24% control)
post-emergence herbicidal activity index ([1]; Table I, 4 WAT, 11.2 kg/h): 1 (25-49% control)
post-emergence herbicidal activity index ([2]; Table I, 2 WAT, 5.6 kg/h): 0 (0-24% control)
post-emergence herbicidal activity index ([2]; Table I, 4 WAT, 11.2 kg/h): 2 (50-74% control)
post-emergence herbicidal activity index ([4]; Table I, 2 WAT, 5.6 kg/h): 0 (0-24% control)
post-emergence herbicidal activity index ([4]; Table I, 4 WAT, 11.2 kg/h): 1 (25-49% control)
post-emergence herbicidal activity index ([6]; 2 WAT, 5.6 kg/h): 0 (0-24% control)
post-emergence herbicidal activity index ([6]; 4 WAT, 11.2 kg/h): 1 (25-49% control)
post-emergence herbicidal activity index ([7]; Table I, 2 WAT, 5.6 kg/h): 3 (75-99% control)
post-emergence herbicidal activity index ([7]; Table I, 4 WAT, 11.2 kg/h): 3 (75-99% control)
post-emergence herbicidal activity index ([8]; Table I, 2 WAT, 5.6 kg/h): 0 (0-24% control)
post-emergence herbicidal activity index ([8]; Table I, 4 WAT, 11.2 kg/h): 1 (25-49% control)
post-emergence herbicidal activity index ([10]; 2 WAT, 5.6 kg/h): 0 (0-24% control)
post-emergence herbicidal activity index ([10]; 4 WAT, 11.2 kg/h): 0 (0-24% control)
post-emergence herbicidal activity index ([12]; Table I, 2 WAT, 5.6 kg/h): 0 (0-24% control)
post-emergence herbicidal activity index ([12]; Table I, 4 WAT, 11.2 kg/h): 0 (0-24% control)
post-emergence herbicidal activity index ([16]; Table I, 2 WAT, 5.6 kg/h): 1 (25-49% control)
post-emergence herbicidal activity index ([16]; Table I, 4 WAT, 11.2 kg/h): 1 (25-49% control)
post-emergence herbicidal activity index ([19]; 2 WAT, 5.6 kg/h): 0 (0-24% control)
post-emergence herbicidal activity index ([19]; 4 WAT, 11.2 kg/h): 0 (0-24% control)
